According to publication PMC6934188, “Epidermal hepcidin is required for neutrophil response to bacterial infection” (The Journal of Clinical Investigation, 2019):
Where no end group is shown, it is not given here.

Legend:
[1] = tested on: human 3D organotypic skin model; assay: IL-8 ELISA on culture supernatant of human 3D organotypic skin model; type: cell-based; conditions: human 3D skin equivalent model stimulated with 3.6 μM hepcidin; n ≥ 3 per group
[2] = tested on: human HaCat keratinocyte cell line; assay: IL-8 ELISA on culture supernatant of HaCat; type: cell-based; conditions: HaCat stimulated with 3.6 μM hepcidin; n ≥ 3 per group
[3] = tested on: murine primary keratinocytes; assay: Cytokines in culture supernatant of murine primary keratinocytes (V-PLEX Proinflammatory Panel1 / CXCL1 ELISA); type: cell-based, mouse
[4] = biological target: SpeB (Streptococcus pyogenes, UniProt P0C0J0)
[5] = tested on: GAS; assay: Therapeutic treatment in GAS-induced necrotizing fasciitis mouse model; type: in vivo, mouse (C57BL6)
[6] = tested on: SpyCEP; conditions: incubated overnight with purified SpyCEP or PBS; mass spectrometry read-out; CXCL1 fragments of 5.9 kDa and 1.3 kDa
[7] = tested on: GAS; assay: Rescue experiment: CXCL1 injection into GAS-infected Hamp1Δker mice; conditions: 1 µg/mouse rCXCL1 s.c. with infection and intralesionally at 24, 48 and 72 h, n ≥ 4 per group
Procedure: (G) Bacterial count in the skin of Hamp1^lox/lox and Hamp1Δ^ker mice injected daily with CXCL1 or PBS; n ≥ 4 per group.
were performed in a C57BL6 background, using 8-12 week old male littermates.
Mouse model of GAS infection
A well-established model of necrotizing soft tissue infection was adapted for this study (3, 4).
In brief, Hamp1lox/lox and Hamp1Δker mice male littermates were subcutaneously injected with
107 c.f.u. of M1T1 5448 GAS. Weight loss and lesion size of mice were estimated daily. After
96 hours, mice were sacrificed and skin necrotic ulcers, spleen, and blood (via retro orbital
bleeding) were recovered and homogenized in sterile PBS. Serial dilutions of tissue
homogenate were spread on THA plates to enumerate bacterial colony forming units (c.f.u.).
For the rescue experiment, Hamp1lox/lox and Hamp1Δker littermates were subcutaneously
infected with 107 c.f.u. of GAS with PBS or 1 µg/mouse of recombinant CXCL1 (rCXCL1;
R&D system, 1395-KC-025/CF). Mice were intralesionally injected again at 24, 48 and 72 h
with PBS or 1 µg of rCXCL1.

Molecule: human hepcidin (DTHFPICIFCCGCCHRSKCGMCCKT; ends and bridges not checked; cysteine pairing not given here; UniProt P81172 60-84, looked up) [human hepcidin used to stimulate HaCat and human 3D organotypic skin model]
- production of IL-8 [1]: induce the production of IL-8
- production of IL-8 [2]: induce the production of IL-8

Molecule: Ferric Ammonium Citrate [iron]
- CXCL1 production (ELISA) ([3]; murine primary keratinocytes stimulated 3 hours with 500 μM ferric ammonium citrate (FAC), n = 3 per group): stimulated CXCL1 production

Molecule: hepcidin (DTNFPICIFCCKCCNNSQCGICCKT; ends and bridges not checked; cysteine pairing not given here; UniProt Q9EQ21 59-83, looked up)
- cleavage by SpeB [4]: not cleaved
- CXCL1 in culture supernatant ([3]; murine primary keratinocytes incubated with 0.36 μM and 3.6 μM synthetic hepcidin for 1 or 3 hours, V-PLEX cytoplex, n = 3 per group): dose-dependent increase
- CXCL1 induction measured by ELISA ([3]; murine primary keratinocytes, 3.6 uM hepcidin, 1 or 3 hours, N=3 per group (Supplemental Figure 5)): confirmed by ELISA
- bacterial dissemination in CXCL1–/– mice ([5]; CXCL1–/– mice, hepcidin treatment (Supplemental Figure 8)): did not prevent bacterial dissemination
- weight variation ([5]; WT mice, s.c. 1 μg hepcidin 24 h after GAS infection, then 500 ng at 48 and 72 h, 4 days, n = 9): recovered their initial weight
- mice with absolutely no bacterial dissemination (bacterial count in spleen) ([5]; WT mice, s.c. 1 μg hepcidin 24 h after GAS infection, then 500 ng at 48 and 72 h, spleen c.f.u. at 96 hours, n = 9, all control mice disseminated): 7 of the 9
- signs of systemic disease ([5]; WT mice, s.c. 1 μg hepcidin 24 h after GAS infection, then 500 ng at 48 and 72 h, vs PBS (weight loss, rough hair coat, hunched posture), n = 9): did not present any signs of systemic disease
- neutrophil recruitment ([5]; WT mice, s.c. 1 μg hepcidin at inoculation site 24 h after GAS infection, then 500 ng at 48 and 72 h, n = 6 per group): increase in neutrophil recruitment
- cleavage by SpyCEP [6]: not cleaved

B1: CXCL1 (protein, UniProt P12850 25-96, looked up)
Growth-regulated alpha protein: APIANELRCQCLQTMAGIHLKNIQSLKVLPSGPHCTQTEVIATLKNGREACLDPEAPLVQKIVQKMLKGVPK
- bacterial count in the skin lesion [7]: significantly decreased the number of bacteria
- cleavage by SpyCEP [6]: cleaved
